Assay results taken from PubChem BioAssay AID248 (DTP/NCI, 2004).
Several values for one entry are separate records, joined by “and”; a condition that tells them apart may be missing. Equal entries are not always repeated. Inconclusive results and toxic doses are left out. No stated cut-off is given here; in the data, active means T/C of 150% or more; inactive means T/C below 125%.

Test system: L1210 leukemia ip in BDF1 mice, survival T/C
Experiment: NCI In Vivo Anticancer Drug Screen. Data for tumor model L1210 Leukemia (intraperitoneal) in B6D2F1 (BDF1) mice
Conditions: endpoint: mean survival time, higher = longer survival
Method in brief: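 Value reflects the ratio of survival in compound-treated mice to survival in vehicle-treated controls, with both groups carrying the same transplanted tumor.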

[1] = dose: 100.0 mg/kg/injection, schedule: Q01DX009 (ip), vehicle: Klucel (hydroxypropylcellulose) (HPC)
[2] = dose: 100.0 mg/kg/injection, schedule: Q04DX003 (ip), vehicle: Klucel (hydroxypropylcellulose) (HPC)
[3] = dose: 200.0 mg/kg/injection, schedule: Q04DX003 (ip), vehicle: Klucel (hydroxypropylcellulose) (HPC)
[4] = dose: 400.0 mg/kg/injection, schedule: Q04DX003 (ip), vehicle: Klucel (hydroxypropylcellulose) (HPC)
[5] = dose: 200.0 mg/kg/injection, schedule: Q01DX009 (ip), vehicle: Klucel (hydroxypropylcellulose) (HPC)
[6] = dose: 100.0 mg/kg/injection, schedule: Q01DX001 (ip), vehicle: saline
[7] = dose: 200.0 mg/kg/injection, schedule: Q01DX001 (ip), vehicle: saline
[8] = dose: 400.0 mg/kg/injection, schedule: Q01DX001 (ip), vehicle: saline
[9] = dose: 100.0 mg/kg/injection, schedule: Q04DX003 (ip), vehicle: saline
[10] = dose: 100.0 mg/kg/injection, schedule: Q01DX009 (ip), vehicle: saline with Tween-80
[11] = dose: 200.0 mg/kg/injection, schedule: Q01DX009 (ip), vehicle: saline with Tween-80
[12] = dose: 50.0 mg/kg/injection, schedule: Q01DX009 (ip), vehicle: saline
[13] = dose: 100.0 mg/kg/injection, schedule: Q01DX009 (ip), vehicle: saline
[14] = dose: 400.0 mg/kg/injection, schedule: Q01DX009 (ip), vehicle: Klucel (hydroxypropylcellulose) (HPC)
[15] = dose: 100.0 mg/kg/injection, schedule: Q04DX002 (ip), vehicle: Klucel (hydroxypropylcellulose) (HPC)
[16] = dose: 200.0 mg/kg/injection, schedule: Q04DX002 (ip), vehicle: Klucel (hydroxypropylcellulose) (HPC)
[17] = dose: 400.0 mg/kg/injection, schedule: Q04DX002 (ip), vehicle: Klucel (hydroxypropylcellulose) (HPC)
[18] = dose: 400.0 mg/kg/injection, schedule: Q01DX009 (ip), vehicle: saline with Tween-80
[19] = dose: 100.0 mg/kg/injection, schedule: Q04DX003 (ip), vehicle: saline with Tween-80
[20] = dose: 200.0 mg/kg/injection, schedule: Q04DX003 (ip), vehicle: saline with Tween-80
[21] = dose: 400.0 mg/kg/injection, schedule: Q04DX003 (ip), vehicle: saline with Tween-80
[22] = dose: 200.0 mg/kg/injection, schedule: Q04DX003 (ip), vehicle: saline
[23] = dose: 400.0 mg/kg/injection, schedule: Q04DX003 (ip), vehicle: saline
[24] = dose: 25.0 mg/kg/injection, schedule: Q01DX009 (ip), vehicle: saline

Measured: T/C

C#CCNc1ccccc1
inactive: dose: 100.0 mg/kg/injection, schedule: Q04DX002 (sc), vehicle: olive oil, sesame oil, peanut oil 102 % of control | dose: 200.0 mg/kg/injection, schedule: Q04DX002 (sc), vehicle: olive oil, sesame oil, peanut oil 102 % of control | dose: 400.0 mg/kg/injection, schedule: Q04DX002 (sc), vehicle: olive oil, sesame oil, peanut oil 109 % of control

CC(=O)Nc1cc(Cl)cc2c1-c1c(Cl)cc(Cl)cc1C2
inactive: [1] 92 % of control | [2] 92 % of control | [3] 105 % of control | [4] 105 % of control

Cc1[nH]c2ccccc2c1C
inactive: [1] 104 % of control | [5] 87 % of control

C#CCOCC(O)C[As](=O)(O)c1cccc(Cl)c1 (stereo not given)
inactive: dose: 1.56 mg/kg/injection, schedule: Q04DX003 (ip), vehicle: saline with Tween-80 92 % of control | dose: 3.13 mg/kg/injection, schedule: Q04DX003 (ip), vehicle: saline with Tween-80 104 % of control | dose: 6.25 mg/kg/injection, schedule: Q04DX003 (ip), vehicle: saline with Tween-80 104 % of control

COc1ccc(C(=O)/C=C\c2ccc(OC)cc2O)cc1
inactive: dose: 50.0 mg/kg/injection, schedule: Q01DX001 (ip), vehicle: saline 100 % of control | [6] 103 % of control | [7] 97 % of control | [8] 103 % of control

CCN(CCC[N+](C)(C)C)C(=O)C(c1ccccc1)c1ccccc1
inactive: [9] 93 % of control

NC(CSCCc1ccc([N+](=O)[O-])cc1)C(=O)O (stereo not given)
inactive: [2] 105 % of control | [3] 96 % of control | [4] 93 % of control

O=C(CNC(=O)Nc1cccc(Cl)c1Cl)N/N=C/c1ccccc1O
inactive: dose: 50.0 mg/kg/injection, schedule: Q01DX009 (ip), vehicle: saline with Tween-80 104 % of control | [10] 101 % of control | [11] 96 % of control

CN(C)C1CCC(Nc2nc(Nc3cc(Cl)cc(Cl)c3)nc3ccccc23)CC1 (stereo not given)
inactive: dose: 100.0 mg/kg/injection, schedule: Q01DX001 (ip), vehicle: saline with Tween-80 95 % of control

CC(C)(C)OC(=O)NCCCCC(NC(=O)OCc1ccccc1)C(=O)Oc1ccc([N+](=O)[O-])cc1 (stereo not given)
inactive: [10] 88 % of control | [11] 93 % of control

NC(N)=NC(N)=NC1CCCCC1
inactive: [12] 89 % of control | [13] 102 % of control | dose: 200.0 mg/kg/injection, schedule: Q01DX009 (ip), vehicle: saline 108 % of control

CCCCCCCCCCCCCCCC[N+](C)(C)C1=C([O-])C(=O)N(c2ccc(Cl)c(Cl)c2)C1=O
inactive: dose: 50.0 mg/kg/injection, schedule: Q04DX002 (ip), vehicle: saline with Tween-80 94 % of control | dose: 100.0 mg/kg/injection, schedule: Q04DX002 (ip), vehicle: saline with Tween-80 94 % of control

CCOC(=O)/C(C)=C\C=C(\C)CCC=C(C)C
inactive: [1] 104 % of control | [5] 102 % of control | [14] 104 % of control

CN(Cc1ccccc1)C(=O)C(Cl)Cl
inactive: [15] 103 % of control | [16] 117 % of control | [17] 109 % of control

O=C=Nc1ccc(C(=O)c2ccccc2)cc1
inactive: dose: 20.0 mg/kg/injection, schedule: Q01DX009 (ip), vehicle: saline with Tween-80 93 % of control | dose: 40.0 mg/kg/injection, schedule: Q01DX009 (ip), vehicle: saline with Tween-80 93 % of control | dose: 80.0 mg/kg/injection, schedule: Q01DX009 (ip), vehicle: saline with Tween-80 90 % of control | dose: 160.0 mg/kg/injection, schedule: Q01DX009 (ip), vehicle: saline with Tween-80 90 % of control | dose: 320.0 mg/kg/injection, schedule: Q01DX009 (ip), vehicle: saline with Tween-80 93 % of control

Cc1cc(N(CCCCl)CCCCl)ccc1C=Nc1cc(Cl)c(O)c(Cl)c1
inactive: [2] 104 % of control | [3] 98 % of control | [4] 101 % of control

C1=CCC(OC2CCCCO2)=CC1 (stereo not given)
inactive: [10] 96 % of control | [11] 94 % of control | [18] 87 % of control

O=C(COc1ccccc1)Nc1ccc(Cl)cc1
inactive: [1] 89 % of control | [5] 95 % of control | [14] 90 % of control

CCC(CC)(C(=O)O)C(=O)O
inactive: dose: 25.0 mg/kg/injection, schedule: Q04DX003 (ip), vehicle: Klucel (hydroxypropylcellulose) (HPC) 93 % of control | dose: 50.0 mg/kg/injection, schedule: Q04DX003 (ip), vehicle: Klucel (hydroxypropylcellulose) (HPC) 90 % of control | [2] 96 % of control and 88 % of control

CC(=O)Oc1ccc(OC(C)=O)c2c1C(=O)CCCC2=O
inactive: [10] 101 % of control | [19] 91 % of control | [11] 93 % of control | [20] 91 % of control | [18] 96 % of control | [21] 96 % of control

Clc1ccc2nc(CI)c(CI)nc2c1
inactive: dose: 6.25 mg/kg/injection, schedule: Q01DX009 (ip), vehicle: acetone 102 % of control | dose: 12.5 mg/kg/injection, schedule: Q01DX009 (ip), vehicle: acetone 102 % of control | dose: 12.5 mg/kg/injection, schedule: Q04DX003 (ip), vehicle: acetone 104 % of control | dose: 25.0 mg/kg/injection, schedule: Q04DX003 (ip), vehicle: acetone 96 % of control

CN(C)CCc1nn[nH]n1
inactive: [9] 102 % of control | [22] 97 % of control | [23] 105 % of control

Cc1cc(=O)oc2cc(O)ccc12
inactive: [2] 100 % of control | [3] 98 % of control

C/C(=N\O)C(=O)c1ccccc1
inactive: [1] 98 % of control | [2] 107 % of control | [9] 103 % of control | [5] 100 % of control | [3] 100 % of control | [22] 107 % of control | [14] 93 % of control | [4] 104 % of control | [23] 108 % of control

O=C(/C=C\c1ccccc1)c1ccc(Cl)cc1
inactive: [1] 97 % of control | [5] 97 % of control | [14] 100 % of control

COP(=S)(OC)N1CC1
inactive: dose: 11.1 mg/kg/injection, schedule: Q01DX Z (ip), vehicle: saline 108 % of control | dose: 16.6 mg/kg/injection, schedule: Q01DX Z (ip), vehicle: saline 100 % of control | dose: 25.0 mg/kg/injection, schedule: Q01DX Z (ip), vehicle: saline 100 % of control

CCOC(=O)Nc1nc2nc[nH]c2c(NC(c2ccccc2)c2ccccc2)c1Br
inactive: [15] 91 % of control | [16] 91 % of control | [17] 86 % of control

Cc1cc(S(N)(=O)=O)ccc1Cl
inactive: [19] 93 % of control | [20] 93 % of control | [21] 104 % of control

COc1ccc2c(c1)N(CCC1CCCCN1C)c1ccccc1S2 (stereo not given)
inactive: dose: 3.12 mg/kg/injection, schedule: Q01DX009 (ip), vehicle: saline 108 % of control and 121 % of control | dose: 6.25 mg/kg/injection, schedule: Q01DX009 (ip), vehicle: saline 105 % of control and 118 % of control | dose: 6.25 mg/kg/injection, schedule: Q04DX003 (ip), vehicle: saline 107 % of control | dose: 12.5 mg/kg/injection, schedule: Q01DX009 (ip), vehicle: saline 111 % of control | dose: 12.5 mg/kg/injection, schedule: Q04DX003 (ip), vehicle: saline 106 % of control | [24] 117 % of control | dose: 25.0 mg/kg/injection, schedule: Q04DX003 (ip), vehicle: saline 117 % of control and 122 % of control | dose: 50.0 mg/kg/injection, schedule: Q04DX003 (ip), vehicle: saline 114 % of control and 117 % of control

Cc1ccccc1SCCC(=O)O
inactive: [6] 100 % of control | [1] 92 % of control | [7] 87 % of control | [5] 96 % of control | [8] 87 % of control | [14] 94 % of control

CC1CC2(CCC1=O)OCCO2 (stereo not given)
inactive: dose: 100.0 mg/kg/injection, schedule: Q01DX001 (ip), vehicle: other 95 % of control | dose: 200.0 mg/kg/injection, schedule: Q01DX001 (ip), vehicle: other 95 % of control | dose: 400.0 mg/kg/injection, schedule: Q01DX001 (ip), vehicle: other 96 % of control

COc1cc2c(cc1O)CN(CCC(C)=O)CC2O (stereo not given)
inactive: [24] 101 % of control | [12] 93 % of control | [13] 86 % of control
